Patent publication US20090124631A1, “Combination Therapy” (priority 2007, published 2009)
Entries after “also recorded” stand apart in the source; their conditions may differ.

Experiments:
[1] = system: tubulin acetylation in human bladder carcinoma T24 cells; assay: Cell-based ELISA for tubulin acetylation
Procedure: Bladder carcinoma T24 cells were seeded in black plates with clear bottoms (Costar #3603) at 1×10^4 cells per well in a volume of 100 μl per well, and were allowed to settle for one day at 37° C. in a CO2 incubator. The cells were treated for 16 h with various concentrations of HDAC inhibitors. 3 h before the end of the treatment, Alamar Blue (BioSource) was added to monitor cell viability according to the manufacturer's instructions. At the end of the treatment time, Alamar Blue OD (at 570 nm and 600 nm) was recorded, then the cells were carefully washed in PBS, fixed in pre-chilled methanol for 10 min at −20° C., washed again twice in PBS, and blocked in PBS containing 0.1% Triton X-100 and 1% BSA for a minimum of 30 min. For H3 acetylation, rabbit-anti-acetyl-H3 (Upstate #06-599) was used as primary antibody at a dilution of 1:1000 for 45 min; the secondary antibody was HRP-coupled goat-anti-rabbit (Sigma #A-0545), used at 1:8000 for 45 min. For tubulin acetylation, the primary antibody was mouse anti-acetyl-tubulin (Sigma #T-6793, 1:2000, 45 min) while the secondary was HRP-coupled goat-anti-mouse antibody (Sigma #A-2304, 1:8000, 45 min). All antibodies were diluted in blocking buffer, and the cells were washed in blocking buffer following each antibody incubation. […] The fluorescent signal for acetylation was normalized by dividing with the viability data obtained from Alamar Blue. EC50 was defined as the concentration of compound which gave a signal half-way between the basal (untreated) level and the maximum level generated by high doses of the HDAC pan-inhibitor NVP-LAQ-824.

[2] = system: TSP-1 transcription in mouse stromal cells in implanted H460 tumors; assay: TSP-1 transcription in mouse stromal cells of implanted H460 tumors; type: in vivo; conditions: Compound A 100 mg/kg, Compound B 40 mg/kg, 5 repeated oral doses
Procedure: […] Each group contains three mice. […] The expression level of TSP-1 mRNA was detected by ABI7700 analyzer using probe/primer pre-mixture reagent (ABI, Cat# Mm01335418 ml) and TaqMan® Universal PCR Master Mix (ABI, Cat# 430-4437) as described in the ABI's protocol.

[3] = system: anti-angiogenesis genes in colon adenocarcinoma HCT15 cells; assay: Microarray analysis of anti-angiogenesis genes in HCT15 cells; type: cell-based, human; conditions: 1 μM, 24 h
Procedure: RNA labeling, microarray hybridization, scanning and analysis were performed by Genotypics (India). RNAs were labeled with either Cy3 or Cy5 using Agilent's optimized labeling kits and hybridized to Human whole genome 44K Oligo Microarray. Array chips were ordered from Agilent (Palo Alto, Calif.). Slides were scanned using a DNA microarry scanner from Agilent and the raw data was extracted using Agilent's image analysis tool (feature extraction software). Normalization and Statistical analysis were performed using GeneSpring software. Biological analysis was performed using Biointerpreter software.
FIG. 4a indicates a list of selected genes with anti-angiogenesis function. The numbers indicate the fold induction in treated samples compared to non-treated samples (average of three biological replicates ±standard deviation).

[4] = system: TSP-1 (THBS1) transcription in human cancer HCT15 cells; assay: Microarray analysis of TSP-1 (THBS1) transcription in HCT15 cells; type: cell-based; conditions: HCT15 cells in vitro, 24 hours
Excerpt: (§1) Total RNAs were extracted and RNA quality analysis was done using Agilent 2100 bioanalyzer and Agilent's RNA Labchip kits. RNAs were labeled with either Cy3 or Cy5 using Agilent's optimized labeling kits and hybridized to Human whole genome 44K Oligo Microarray (Agilent, Palo Alto, Calif.). Slides were scanned using DNA microarry scanner from Agilent and the raw data was extracted using Agilent's image analysis tool (feature extraction software). Normalization and statistical analysis were performed using GeneSpring software. Biological analysis was performed using Biointerpreter software.

[5] = system: MT3 transcription in human myeloma RPMI-8226 cells; assay: MT3 transcription in RPMI-8226 cells, real time RT-PCR; type: cell-based; conditions: 24 hours
Procedure: Total RNAs were extracted from cell pellets or from tumors using QiaShredder and RNeasy mini kit (Qiagen). 1 μg RNA was converted into cDNA using Expand RT enzyme (Roche) and Oligo(dT) primers (Invitrogen) in a 20 μl reaction volume. For quantitative real-time PCR, the primers used for MT3 were [NT] and [NT] and those for β-actin were [NT] and [NT]. Reactions with either pair of primers included an annealing temperature of 63.4° C. All real-time PCR reactions were performed on the MasterCycler ep Realplex (Eppendorf) using FastStart SYBRGreen Master (Roche).

[6] = system: TSP-1 expression in cancer cells (Du145, H460, A549); assay: TSP-1 transcription in cancer cells in vitro; type: cell-based, human; conditions: over time, 3 microM, 24 hours
Procedure: Cells were exposed by Cpd A or SAHA (3 microM) for 24 hours. Total RNA was collected by Isogen (Nippongene, Tokyo, Japan) and reverse-transcribed to cDNA by ExScript® RT reagent Kit (TAKARA, Kyoto, Japan). The expression level of TSP-1 mRNA was detected by ABI7700 analyzer using a probe/primer pre-mixture reagent (ABI, Cat#, CA, USA) and TaqMan® Universal PCR Master Mix (ABI, Cat# 430-4437) as described in the ABI's protocol.

[7] = system: VEGF expression in A549 (NSCLC) xenografts; assay: VEGF expression in A549 xenografts; type: in vivo; conditions: 150 mg/kg, p.o., qdx3
[8] = system: human H460 non-small cell lung tumor xenograft; assay: H460 xenograft, combination with taxotere; type: in vivo, mouse; conditions: H460, oral Compound A 3 times weekly with taxotere i.v. single dose
Procedure: Antitumor studies were done using human H460 non-small cell lung tumor xenograft model in male BALBc/A nude mice (from Japan Crea Inc., Japan). Male nude mice were used at age 8-10 weeks. Human carcinoma cells were injected subcutaneously in the animal flank and allowed to form solid tumors. Tumor fragments (about 2 mm^2 fragments) were then removed and implanted subcutaneously to the right flank of other animals. […] Tumor volumes and gross body weight of animals were monitored twice weekly for up to 3 weeks. Each experimental group contained 6 animals.

[9] = system: MT3 transcription in human colon cancer HCT15 cells; assay: MT3 transcription in HCT15 cells, microarray analysis; type: cell-based; conditions: 1 uM
Excerpt: as §1

Row | SMILES | tubulin acetylation [1] | TSP-1 transcription in mouse stromal cells [2] | transcription of anti-angiogenesis genes [3] | TSP-1 (THBS1) transcription [4] | MT3 transcription [5] | TSP-1 expression [6] | VEGF expression [7] | antitumor activity of taxotere [8] | MT3 transcription [9]
1 | Nc1ccccc1NC(=O)c1ccc(CNc2nccc(-c3cccnc3)n2)cc1 [Compound A] | but not tubulin acetylation | induction | affects several genes of the angiogenesis pathway; also recorded: induction | induction | dose-dependent induction | induction | suppression | Potentiation | –
2 | Nc1ccccc1NC(=O)c1ccc(N2CC[C@H](Nc3cccnc3)C2)cc1 [Compound B] | – | induction | – | induction | – | – | – | – | –
3 | Nc1ccc(-c2ccccc2)cc1NC(=O)c1ccc(N2CC[C@H](N)C2)cc1 [Compound D] | – | – | – | – | – | – | – | – | induction
